≈ marks a conversion by molar mass, not a printed value. Where two headings read alike, the source gives them in different places.
How the values were obtained:
[1] = Resazurin cell growth inhibition assay, normal fibroblast cells; type: cell-based; conditions: M ± SEM of three independent experiments, read-out: Cytotoxic activity IC50, Fibroblast
Text: (§1) All compounds 2a-e, 3a-d, and PPAD’s 4a-t were subjected to a screening system for evaluation of their anticancer activity against cell line of human cancer, namely liver (HepG2 and Huh-7) cancer and normal fibroblast cells obtained from the German Cancer Research Center (DKFZ), following the Resazurin Cell Growth Inhibition Assay[45] in comparison to the standard treatment using DOX (see Supplementary).
(§2) Cell culture and treatment
(§3) All reagents were handled in a sterile fume hood. DMEM medium, and fetal bovine serum (FBS) were purchased from Gibco;phosphate-buffered saline pH 7.4 (PBS) and trypsin-EDTA were obtained from Sigmae Aldrich. Alamar Blue or Resazurin (Promega,Mannheim, Germany) reduction assay was used to assess the cytotoxicity of the studied samples. The growth medium (DMEMmedium with 10% FBS, 10 0 U/mL penicillin, and 10 0 mg/L streptomycin), and alamar blue were stored at 48 C, while trypsineEDTA and FBS were stored frozen at 208C and thawed before use; PBS was stored at room temperature. The Hep-G2, Huh-7 and normal fibroblast cells were obtained from the German Cancer Research Center (DKFZ).Cells were cultured in 50 cm2 culture flask s (Corning) using DMEM medium supplemented with 10% FBS, penicillin (10 0 IU/mL), and streptomycin ([…]). The culture was maintained at 37 C atmosphere of 5% CO2 and 95% relative humidity. The cells were transferred to a new fl ask every 2 days and treated with trypsineEDTA to detach them from the flask . Cells were counted under a microscope using a hemacytometer (Hausser Scientific).Cell solutions were diluted with growth medium to a concentration of 1 *10^5 cells/mL and transferred to a 96-well plate, and treated with gradient concentrations of test compounds.
(§4) Resazurin cell growth inhibition assay
(§5) Alamar Blue or Resazurin (Promega, Mannheim, Germany) reduction assay was used to assess the cytotoxicity of the studied samples. The assay tests cellular viability and mitochondrial function. Briefly y, adherent cells were grown in tissue culture flask s, and then harvested by treating the fl asks with 0.025% trypsin and0.25 mM EDTA for 5 min. Once detached, cells were washed, counted and an aliquot (5 * 103cells) was placed in each well of a96-well cell culture plate in a total volume of […]. Cells were allowed to attach overnight and then treated with samples. The final concentration of samples ranged from 0 to 10 0 mM. After 4 8 h,[…] Resazurin 0.01% w/v solution was added to each well and the plates were incubated at 37C for 1 -2 h. Fluorescence was measured on an automated 96-well Infinite M2000 ProTM plate reader (Tecan, Crailsheim, Germany) using an excit ation wave-length of 54 4 nm and an emission wavelength of 590 nm. Doxorubicin was used as positive control. Each assay was done at least three times, with two replicates each. The viability was compared based on a comparison with untreated cells. IC50(on cancer cells) were the concentration of sample required to inhibit 50% of the cell proliferation and were calculated from a calibration curve by a linear regression using Microsoft Excel

[2] = test system: Huh-7 cell line; experiment: Resazurin cell growth inhibition assay, Huh-7; type: cell-based, human; conditions: for IC50: Homo sapiens
Text: as §1, §2, §3, §4, §5

[3] = test system: HepG2 cell line; experiment: Resazurin cell growth inhibition assay, HepG2; type: cell-based, human; conditions: for IC50: Homo sapiens
Text: as §1, §2, §3, §4, §5

[4] = Huh-7, 48 h, resazurin assay, 48 h, M ± SEM of three independent experiments, read-out: Cytotoxic activity IC50, Huh-7 cell line
[5] = HepG2, 48 h, resazurin assay, 48 h, M ± SEM of three independent experiments, read-out: Cytotoxic activity IC50, HepG2 cell line
[6] = resazurin assay, 48 h, M ± SEM of three independent experiments
[7] = HepG2, converted from μg/mL, read-out: IC50 against HepG2 cell line, equivalent in μM

Row | SMILES | IC50 at 48 h [1] [µg/mL] | IC50 [2, 4] [µg/mL] | IC50 [3, 5] [µg/mL] | melting point [°C] | IC50 ([2]; Huh-7, converted from μg/mL, read-out: IC50 against Huh-7 cell line, equivalent in μM) [µM] | Cytotoxic activity IC50, Huh-7 cell line [2, 6] [µg/mL] | IC50 [3, 7] [µM] | Cytotoxic activity IC50, HepG2 cell line [3, 6] [µg/mL]
1 | COc1cc(-c2nc(N3N=C(c4c5ccccc5cc5ccccc45)CC3c3c[nH]c4ccccc34)[nH]c(=O)c2C#N)cc(OC)c1OC (centres unmarked) [Compound 4p, 2-[3-Anthracene-9-yl-5-(1H-indol-3-yl)-4,5-dihydro-pyrazol-1-yl]-6-oxo-4–(3,4,5-trimethoxy-phenyl)-1,6-dihydro-pyrimidine-5-carbonitrile] | 18.2 ± 4.02 (≈ 28.2 µM) | 8.14 ± 1.65 | 11.2 ± 1.2 |  |  |  |  | 
2 | O=C(/C=C/c1c[nH]c2ccccc12)c1c2ccccc2cc2ccccc12 [Compound 3d, (2E)-1–(9-anthryl)-3-(1H-indol-3-yl)prop-2-en-1-one] | 40.8 ± 4.72 (≈ 117 µM) | 22.6 ± 3.3 | 22.5 ± 2.8 | 170 to 172 |  |  |  | 
3 | COc1cc(C2CC(c3c4ccccc4cc4ccccc34)=NN2c2nc(-c3ccccc3)c(C#N)c(=O)[nH]2)cc(OC)c1OC (centres unmarked) [Compound 4c, 2-[3-Anthracene-9-yl-5–(3,4,5-trimethoxy-phenyl)-4,5-dihydro-pyrazol-1-yl]-6-oxo-4-phenyl-1,6-dihydro-pyrimidine-5-carbonitrile] | 29.3 ± 3.51 (≈ 48.2 µM) | 11.3 ± 1.09 | 15.3 ± 4.22 | 110 to 112 |  |  |  | 
4 | CN(C)c1ccc(-c2nc(N3N=C(c4c5ccccc5cc5ccccc45)CC3c3ccc(N(C)C)cc3)[nH]c(=O)c2C#N)cc1 (centres unmarked) [Compound 4r, 2-[3-Anthracene-9-yl-5–(4-dimethylamino-phenyl)-4,5-dihydro-pyrazol-1-yl]-4–(4-dimethylamino-phenyl)-6-oxo-1,6-dihydro-pyrimidine-5-carbonitrile] | 25.2 ± 5.24 (≈ 41.8 µM) | 7.61 ± 0.21 | 8.44 ± 1.1 | 174 to 175 |  |  |  | 
5 | COc1cc(-c2nc(NN)[nH]c(=O)c2C#N)cc(OC)c1OC [Compound 2d] | 40.1 ± 1.37 (≈ 126 µM) | 21.8 ± 3.18 | 20.6 ± 2.14 |  |  |  |  | 
6 | COc1cc(C2CC(c3c4ccccc4cc4ccccc34)=NN2c2nc(-c3ccc(N(C)C)cc3)c(C#N)c(=O)[nH]2)cc(OC)c1OC (centres unmarked) [Compound 4s, 2-[3-Anthracene-9-yl-5–(3,4,5-trimethoxy-phenyl)-4,5-dihydro-pyrazol-1-yl]-4–(4-dimethylamino-phenyl)-6-oxo-1,6-dihydro-pyrimidine-5-carbonitrile] | 20.3 ± 4.15 (≈ 31.2 µM) | 11.3 ± 0.61 | 8.66 ± 1.44 | 160 to 162 |  |  |  | 
7 | CN(C)c1ccc(-c2nc(NN)[nH]c(=O)c2C#N)cc1 [Compound 2e, 4-[4-(Dimethylamino)phenyl]-2-hydrazino-6-oxo-1,6-dihydropyrimidine-5-carbonitrile] | 40.4 ± 1.89 (≈ 150 µM) | 21 ± 4.12 | 20.1 ± 3 | 214 to 216 |  |  |  | 
8 | N#Cc1c(-c2ccc(F)cc2)nc(NN)[nH]c1=O [Compound 2b] | 40.6 ± 2.45 (≈ 165 µM) | 21.6 ± 2.19 | 22.2 ± 2.2 |  |  |  |  | 
9 | CN(C)c1ccc(C2CC(c3c4ccccc4cc4ccccc34)=NN2c2nc(-c3c[nH]c4ccccc34)c(C#N)c(=O)[nH]2)cc1 (centres unmarked) [Compound 4j, 2-[3-Anthracene-9-yl-5–(4-dimethylamino-phenyl)-4,5-dihydro-pyrazol-1-yl]-4-(1H-indol-3-yl)-6-oxo-1,6-dihydro-pyrimidine-5-carbonitrile] | 34.1 ± 5.17 (≈ 56.9 µM) | 13.2 ± 3.05 | 12.2 ± 2.53 | 240 to 242 |  |  |  | 
10 | COc1cc(-c2nc(N3N=C(c4c5ccccc5cc5ccccc45)CC3c3cc(OC)c(OC)c(OC)c3)[nH]c(=O)c2C#N)cc(OC)c1OC (centres unmarked) [Compound 4o, 2-[3-Anthracene-9-yl-5–(3,4,5-trimethoxy-phenyl)-4,5-dihydro-pyrazol-1-yl]-6-oxo-4–(3,4,5-trimethoxy-phenyl)-1,6-dihydro-pyrimidine-5-carbonitrile] | 28.1 ± 3.31 (≈ 40.2 µM) | 14.5 ± 1.24 | 10.2 ± 1.02 | 165 to 166 |  |  |  | 
11 | CN(C)c1ccc(/C=C/C(=O)c2c3ccccc3cc3ccccc23)cc1 [Compound 3b] | 40.7 ± 2.34 (≈ 116 µM) | 21 ± 1.12 | 21.4 ± 2.76 |  |  |  |  | 
12 | CN(C)c1ccc(-c2nc(N3N=C(c4c5ccccc5cc5ccccc45)CC3c3c[nH]c4ccccc34)[nH]c(=O)c2C#N)cc1 (centres unmarked) [Compound 4t, 2-[3-Anthracene-9-yl-5-(1H-indol-3-yl)-4,5-dihydro-pyrazol-1-yl]-4–(4-dimethylamino-phenyl)-6-oxo-1,6-dihydro-pyrimidine-5-carbonitrile] | 23.5 ± 3.82 (≈ 39.2 µM) | 7.42 ± 1.48 | 9.21 ± 1.05 | 190 to 191 |  |  |  | 
13 | COc1cc(C2CC(c3c4ccccc4cc4ccccc34)=NN2c2nc(-c3ccc(F)cc3)c(C#N)c(=O)[nH]2)cc(OC)c1OC (centres unmarked) [Compound 4g, 2-[3-Anthracene-9-yl-5–(3,4,5-trimethoxy-phenyl)-4,5-dihydro-pyrazol-1-yl]-4–(4-fluoro-phenyl)-6-oxo-1,6-dihydro-pyrimidine-5-carbonitrile] | 25.3 ± 4.87 (≈ 40.5 µM) | 4.78 ± 0.24 | 7.22 ± 1.85 |  | 7.6 |  |  | 
14 | N#Cc1c(-c2c[nH]c3ccccc23)nc(N2N=C(c3c4ccccc4cc4ccccc34)CC2c2c[nH]c3ccccc23)[nH]c1=O (centres unmarked) [Compound 4l, 2-[3-Anthracene-9-yl-5-(1H-indol-3-yl)-4,5-dihydro-pyrazol-1-yl]-4-(1H-indol-3-yl)-6-oxo–1,6-dihydro-pyrimidine-5-carbonitrile] | 20.2 ± 3.18 (≈ 34 µM) | 12.4 ± 1.75 | 14.6 ± 2.12 | 220 to 222 |  |  |  | 
15 | COc1cccc2c1C(=O)c1c(O)c3c(c(O)c1C2=O)C[C@@](O)(C(=O)CO)C[C@@H]3O[C@H]1C[C@H](N)[C@H](O)[C@H](C)O1 [Doxorubicin, reference compound] | 24.1 ± 3.53 (≈ 44.4 µM) | 5.43 | 5.43 ± 0.24 |  |  | 6.40 ± 0.43 | 10.1 | 
16 | CN(C)c1ccc(C2CC(c3c4ccccc4cc4ccccc34)=NN2c2nc(-c3ccc(F)cc3)c(C#N)c(=O)[nH]2)cc1 (centres unmarked) [Compound 4f, 2-[3-Anthracene-9-yl-5–(4-dimethylamino-phenyl)-4,5-dihydro-pyrazol-1-yl]-4–(4-fluoro-phenyl)-6-oxo-1,6-dihydro-pyrimidine-5-carbonitrile] | 33.1 ± 6.52 (≈ 57.3 µM) | 8.45 ± 0.75 | 4.2 |  |  |  | 7.2 | 4.22 ± 0.94
17 | O=C(/C=C/c1ccc(F)cc1)c1c2ccccc2cc2ccccc12 [Compound 3a] | 40.6 ± 2.48 (≈ 124 µM) | 21.8 ± 1.24 | 22.2 ± 2.45 |  |  |  |  | 
18 | COc1cc(/C=C/C(=O)c2c3ccccc3cc3ccccc23)cc(OC)c1OC [Compound 3c] | 40.8 ± 4.51 (≈ 102 µM) | 21.5 ± 4.13 | 21.5 ± 2.54 |  |  |  |  | 
19 | N#Cc1c(-c2ccccc2)nc(NN)[nH]c1=O [Compound 2a] | 40 ± 1.24 (≈ 176 µM) | 21.7 ± 1.18 | 20.8 ± 1.6 |  |  |  |  | 
20 | N#Cc1c(-c2c[nH]c3ccccc23)nc(NN)[nH]c1=O [Compound 2c] | 40.2 ± 2.13 (≈ 151 µM) | 21.3 ± 2.37 | 20.2 ± 1.88 |  |  |  |  | 
